ChEMBL document CHEMBL4406797, “Histone acetyltransferase inhibitors: An overview in synthesis, structure-activity relationship and molecular mechanism” (Eur J Med Chem, 2019)
Converted amounts (≈) assume the structure as drawn. Values belong to the molecule of their own block, whether it stands above or below them.

What was measured:
Homo sapiens [1] = species: Homo sapiens; experiment: Inhibition of Tip60 (unknown origin)/ PCAF (unknown origin)/ CBP (unknown origin) relative to control; settings: concentration not given here
Homo sapiens [2] = species: Homo sapiens; experiment: Inhibition of HAT (unknown origin) relative to control; set-up: concentration or dose not given beside the values; settings: concentration not given here
[3] = target: T1, Histone acetyltransferase p300 (Homo sapiens, UniProt Q09472); experiment: Inhibition of P300 (unknown origin) relative to control; settings: concentration not given here
U-937 = experiment: Induction of apoptosis in human U937 cells relative to control; format: functional
[4] = target: T1, Histone acetyltransferase p300; experiment: Displacement of [3H]-acetyl-CoA from P300 (unknown origin) using peptide as substrate after 60 mins
[5] = target: T2, Histone acetyltransferase KAT5 (Homo sapiens, UniProt Q92993); experiment: Displacement of [3H]-acetyl-CoA from recombinant Tip60 (unknown origin) at 150 uM using H4-20 as substrate after 5 mins by scintillation counting analysis relative to control
Target sequence in this assay (Q92993 whole entry, looked up): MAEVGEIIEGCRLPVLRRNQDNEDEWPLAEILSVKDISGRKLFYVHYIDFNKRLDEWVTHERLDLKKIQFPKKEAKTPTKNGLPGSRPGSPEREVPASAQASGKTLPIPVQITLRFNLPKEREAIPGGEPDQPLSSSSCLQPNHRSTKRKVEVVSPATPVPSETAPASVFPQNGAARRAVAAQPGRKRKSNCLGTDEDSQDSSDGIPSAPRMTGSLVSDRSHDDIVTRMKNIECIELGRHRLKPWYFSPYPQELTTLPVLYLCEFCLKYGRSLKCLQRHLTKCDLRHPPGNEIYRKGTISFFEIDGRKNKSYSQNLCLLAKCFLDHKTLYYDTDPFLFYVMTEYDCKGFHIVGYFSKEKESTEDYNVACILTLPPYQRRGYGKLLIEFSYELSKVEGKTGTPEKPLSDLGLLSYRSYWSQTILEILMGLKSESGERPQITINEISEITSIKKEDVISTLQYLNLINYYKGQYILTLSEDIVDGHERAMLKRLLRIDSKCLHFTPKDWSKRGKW

[6] = target: T1, Histone acetyltransferase p300; experiment: Displacement of [3H]-acetyl-CoA from recombinant P300 (unknown origin) at 150 uM using H4-20 as substrate after 5 mins by scintillation counting analysis relative to control
[7] = target: T3, Histone acetyltransferase KAT2B (Homo sapiens, UniProt Q92831); experiment: Displacement of [3H]-acetyl-CoA from recombinant PCAF (unknown origin) at >100 uM using H4-20 as substrate after 5 mins by scintillation counting analysis relative to control
Target sequence in this assay (Q92831 whole entry, looked up): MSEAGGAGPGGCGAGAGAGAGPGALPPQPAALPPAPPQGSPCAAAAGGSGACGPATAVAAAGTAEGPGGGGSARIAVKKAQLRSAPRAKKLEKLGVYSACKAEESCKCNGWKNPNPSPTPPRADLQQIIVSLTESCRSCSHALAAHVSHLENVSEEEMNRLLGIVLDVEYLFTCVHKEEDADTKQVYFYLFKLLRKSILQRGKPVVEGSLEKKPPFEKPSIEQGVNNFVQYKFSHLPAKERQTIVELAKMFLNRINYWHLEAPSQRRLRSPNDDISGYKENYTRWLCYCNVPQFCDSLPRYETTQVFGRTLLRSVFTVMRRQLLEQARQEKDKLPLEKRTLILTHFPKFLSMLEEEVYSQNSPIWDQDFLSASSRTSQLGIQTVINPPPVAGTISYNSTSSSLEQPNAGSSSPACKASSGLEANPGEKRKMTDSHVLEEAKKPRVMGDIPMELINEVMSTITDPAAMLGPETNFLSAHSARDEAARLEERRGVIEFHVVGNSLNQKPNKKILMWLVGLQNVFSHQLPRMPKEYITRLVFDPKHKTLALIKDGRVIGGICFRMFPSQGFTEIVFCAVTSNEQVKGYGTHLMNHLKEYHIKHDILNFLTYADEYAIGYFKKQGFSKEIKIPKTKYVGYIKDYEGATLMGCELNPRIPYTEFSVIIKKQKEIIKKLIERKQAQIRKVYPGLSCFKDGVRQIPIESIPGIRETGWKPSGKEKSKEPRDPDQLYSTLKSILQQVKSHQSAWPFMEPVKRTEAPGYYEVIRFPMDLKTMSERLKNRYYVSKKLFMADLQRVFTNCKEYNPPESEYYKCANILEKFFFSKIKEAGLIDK

[8] = target: T4, Histone acetyltransferase ESA1 (Saccharomyces cerevisiae (strain ATCC 204508 / S288c) (Baker's yeast)) (UniProt Q08649); experiment: Displacement of [3H]-acetyl-CoA from recombinant yeast ESA1 at 150 uM using H4-20 as substrate after 5 mins by scintillation counting analysis relative to control
T4 sequence (whole entry): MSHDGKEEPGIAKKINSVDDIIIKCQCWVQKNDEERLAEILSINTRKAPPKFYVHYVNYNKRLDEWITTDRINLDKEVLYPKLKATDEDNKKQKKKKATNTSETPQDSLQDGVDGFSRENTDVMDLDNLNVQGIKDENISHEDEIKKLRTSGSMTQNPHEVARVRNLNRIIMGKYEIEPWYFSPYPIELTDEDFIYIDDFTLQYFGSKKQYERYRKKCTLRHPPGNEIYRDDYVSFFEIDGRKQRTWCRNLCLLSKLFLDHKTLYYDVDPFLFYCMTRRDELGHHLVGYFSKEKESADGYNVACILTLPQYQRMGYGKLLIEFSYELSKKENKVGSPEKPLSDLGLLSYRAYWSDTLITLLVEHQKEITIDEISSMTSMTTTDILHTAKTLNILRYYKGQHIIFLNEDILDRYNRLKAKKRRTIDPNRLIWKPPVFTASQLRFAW

HCT cell line = experiment: Cytotoxicity against human HCT cells assessed as reduction in cell viability by SRB assay; format: functional, cell-based
A549 [9] = experiment: Cytotoxicity against human A549 cells assessed as reduction in cell viability by SRB assay; format: functional, cell-based
HT-29 = experiment: Cytotoxicity against human HT-29 cells assessed as reduction in cell viability by SRB assay; format: functional, cell-based
Hep 3B2 = experiment: Cytotoxicity against human Hep3B cells assessed as reduction in cell viability by SRB assay; format: functional, cell-based
MDA-MB-231 = experiment: Cytotoxicity against human MDA-MB-231 cells assessed as reduction in cell viability by SRB assay; format: functional, cell-based
HeLa = experiment: Cytotoxicity against human HeLa cells assessed as reduction in cell viability by SRB assay; format: functional, cell-based
[10] = target: T1, Histone acetyltransferase p300; experiment: Inhibition of P300 (unknown origin)
[11] = target: T3, Histone acetyltransferase KAT2B; experiment: Inhibition of PCAF (unknown origin) at 100 uM relative to control
Target sequence in this assay (Q92831 whole entry, looked up): as the sequence (Q92831 whole entry, looked up) above

[12] = target: T3, Histone acetyltransferase KAT2B; experiment: Inhibition of PCAF (unknown origin) at 100 uM by CPM dye-based fluorescence assay relative to control
Target sequence in this assay (Q92831 whole entry, looked up): as the sequence (Q92831 whole entry, looked up) above

[13] = target: T5, Histone acetyltransferase KAT7 (Homo sapiens, UniProt O95251); experiment: Inhibition of KAT7 (unknown origin)
[14] = target: T2, Histone acetyltransferase KAT5; experiment: Inhibition of KAT5 (unknown origin)
[15] = target: T5, Histone acetyltransferase KAT7; settings: 10 uM
[16] = target: T5, Histone acetyltransferase KAT7; settings: 10 uM; remark: listed apart in the source
CREB-binding protein = CREB-binding protein (Homo sapiens, UniProt Q92793); experiment: Inhibition of recombinant CBP (unknown origin) at 500 uM using H3 peptide as substrate after 30 mins in presence of acetyl-CoA by fluorescence assay relative to control
A549 [17] = experiment: Cytotoxicity against human A549 cells after 48 hrs by MTT assay; format: functional, cell-based; settings: A549, 48 h
[18] = target: T3, Histone acetyltransferase KAT2B; experiment: Displacement of [3H]-acetyl-CoA from recombinant PCAF (unknown origin) expressed in baculovirus expression system preincubated for 10 mins followed by substrate addition measured after 10 mins
Target sequence in this assay (Q92831 whole entry): as the sequence (Q92831 whole entry, looked up) above

[19] = target: T3, Histone acetyltransferase KAT2B; experiment: Inhibition of PCAF in human HeLa cells using [3H]-acetyl-CoA as substrate preincubated for 10 mins followed by substrate addition measured after 10 mins by liquid scintillation counting analysis; format: cell-based
Target sequence in this assay (Q92831 whole entry): as the sequence (Q92831 whole entry, looked up) above

[20] = target: T1, Histone acetyltransferase p300; experiment: Displacement of [3H]-acetyl-CoA from recombinant GST-tagged P300 (unknown origin) after 30 mins by scintillation counting analysis
[21] = target: T1, Histone acetyltransferase p300; experiment: Displacement of [3H]-acetyl-CoA from recombinant GST-tagged P300 (unknown origin) by scintillation counting analysis
[22] = target: Histone deacetylase 1 (Homo sapiens) (UniProt Q13547); experiment: Inhibition of HDAC1 (unknown origin) relative to control; settings: concentration not given here
[23] = target: T3, Histone acetyltransferase KAT2B; experiment: Inhibition of PCAF (unknown origin) relative to control; settings: concentration not given here
Target sequence in this assay (Q92831 whole entry, looked up): as the sequence (Q92831 whole entry, looked up) above

[24] = target: Histone acetyltransferase KAT2A (Homo sapiens) (UniProt Q92830); experiment: Inhibition of GCN5 (unknown origin) relative to control; settings: concentration not given here
[25] = target: CREB-binding protein/Histone acetyltransferase p300 (Homo sapiens, UniProt Q09472+Q92793); experiment: Inhibition of p300 (unknown origin)/CBP (unknown origin); format: protein assay
[26] = Inhibition of HAT (unknown origin); set-up: species or system Homo sapiens

CREB-binding protein, sequence (Q92793 2-2442 limits assumed): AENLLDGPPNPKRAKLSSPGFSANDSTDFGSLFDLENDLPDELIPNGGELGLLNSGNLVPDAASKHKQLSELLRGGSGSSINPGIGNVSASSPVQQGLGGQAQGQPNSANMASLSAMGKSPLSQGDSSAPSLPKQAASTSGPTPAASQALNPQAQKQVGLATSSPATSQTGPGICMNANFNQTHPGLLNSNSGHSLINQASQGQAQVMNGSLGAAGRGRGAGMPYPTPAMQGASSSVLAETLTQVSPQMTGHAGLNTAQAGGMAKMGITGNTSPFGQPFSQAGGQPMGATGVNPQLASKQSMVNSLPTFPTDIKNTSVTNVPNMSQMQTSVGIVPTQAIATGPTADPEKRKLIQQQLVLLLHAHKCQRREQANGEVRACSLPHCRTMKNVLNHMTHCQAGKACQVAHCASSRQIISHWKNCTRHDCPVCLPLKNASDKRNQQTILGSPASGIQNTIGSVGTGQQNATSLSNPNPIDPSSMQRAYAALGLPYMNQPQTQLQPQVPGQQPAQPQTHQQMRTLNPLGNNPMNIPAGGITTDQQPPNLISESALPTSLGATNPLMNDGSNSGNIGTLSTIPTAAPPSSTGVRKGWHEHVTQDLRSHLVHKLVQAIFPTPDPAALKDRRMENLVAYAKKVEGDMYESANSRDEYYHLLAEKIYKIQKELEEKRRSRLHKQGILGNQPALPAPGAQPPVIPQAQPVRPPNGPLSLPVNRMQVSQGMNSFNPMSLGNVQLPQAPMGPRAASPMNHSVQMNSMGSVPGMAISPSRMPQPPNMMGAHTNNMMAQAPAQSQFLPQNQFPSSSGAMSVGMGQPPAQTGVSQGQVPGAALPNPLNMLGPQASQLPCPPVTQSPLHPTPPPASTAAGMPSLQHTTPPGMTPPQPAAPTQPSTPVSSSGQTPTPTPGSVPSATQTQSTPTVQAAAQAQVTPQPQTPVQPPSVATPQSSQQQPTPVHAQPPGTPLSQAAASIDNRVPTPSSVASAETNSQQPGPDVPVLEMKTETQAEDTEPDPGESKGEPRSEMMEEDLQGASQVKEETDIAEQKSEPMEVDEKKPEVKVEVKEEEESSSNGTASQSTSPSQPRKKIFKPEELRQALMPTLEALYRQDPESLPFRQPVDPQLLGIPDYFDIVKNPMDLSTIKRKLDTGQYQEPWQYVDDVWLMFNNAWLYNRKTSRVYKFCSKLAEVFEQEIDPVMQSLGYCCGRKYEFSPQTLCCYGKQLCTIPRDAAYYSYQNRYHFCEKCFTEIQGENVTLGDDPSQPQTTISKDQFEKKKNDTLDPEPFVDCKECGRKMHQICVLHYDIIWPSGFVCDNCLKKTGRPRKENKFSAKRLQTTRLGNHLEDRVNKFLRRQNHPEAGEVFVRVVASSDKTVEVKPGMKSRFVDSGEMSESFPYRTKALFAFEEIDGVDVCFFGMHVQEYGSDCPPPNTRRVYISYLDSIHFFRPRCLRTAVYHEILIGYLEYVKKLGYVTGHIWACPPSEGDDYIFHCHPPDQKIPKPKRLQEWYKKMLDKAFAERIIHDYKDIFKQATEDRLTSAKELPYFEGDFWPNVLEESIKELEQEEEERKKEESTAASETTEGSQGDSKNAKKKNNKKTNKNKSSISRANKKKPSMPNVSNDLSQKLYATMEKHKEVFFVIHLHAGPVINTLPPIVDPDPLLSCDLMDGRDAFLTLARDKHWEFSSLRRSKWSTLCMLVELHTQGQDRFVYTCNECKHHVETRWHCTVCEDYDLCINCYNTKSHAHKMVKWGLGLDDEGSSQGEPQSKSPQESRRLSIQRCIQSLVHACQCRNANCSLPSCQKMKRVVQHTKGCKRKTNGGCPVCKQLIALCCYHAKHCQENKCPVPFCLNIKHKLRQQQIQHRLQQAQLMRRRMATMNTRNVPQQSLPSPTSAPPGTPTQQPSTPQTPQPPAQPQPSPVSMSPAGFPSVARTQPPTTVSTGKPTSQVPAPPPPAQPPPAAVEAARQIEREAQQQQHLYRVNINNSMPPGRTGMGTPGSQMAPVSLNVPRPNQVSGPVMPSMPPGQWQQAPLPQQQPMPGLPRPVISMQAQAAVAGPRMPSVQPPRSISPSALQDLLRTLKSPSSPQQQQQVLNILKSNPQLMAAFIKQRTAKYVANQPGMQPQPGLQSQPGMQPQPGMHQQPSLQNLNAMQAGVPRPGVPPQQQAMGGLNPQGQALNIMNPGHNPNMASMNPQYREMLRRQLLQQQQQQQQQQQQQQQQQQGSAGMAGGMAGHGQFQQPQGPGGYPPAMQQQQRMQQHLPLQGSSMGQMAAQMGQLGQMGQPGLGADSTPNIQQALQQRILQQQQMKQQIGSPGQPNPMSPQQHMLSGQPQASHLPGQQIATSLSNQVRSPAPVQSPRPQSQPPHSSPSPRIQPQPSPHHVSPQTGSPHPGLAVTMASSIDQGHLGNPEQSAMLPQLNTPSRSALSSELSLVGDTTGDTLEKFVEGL
T5 sequence (O95251 whole entry): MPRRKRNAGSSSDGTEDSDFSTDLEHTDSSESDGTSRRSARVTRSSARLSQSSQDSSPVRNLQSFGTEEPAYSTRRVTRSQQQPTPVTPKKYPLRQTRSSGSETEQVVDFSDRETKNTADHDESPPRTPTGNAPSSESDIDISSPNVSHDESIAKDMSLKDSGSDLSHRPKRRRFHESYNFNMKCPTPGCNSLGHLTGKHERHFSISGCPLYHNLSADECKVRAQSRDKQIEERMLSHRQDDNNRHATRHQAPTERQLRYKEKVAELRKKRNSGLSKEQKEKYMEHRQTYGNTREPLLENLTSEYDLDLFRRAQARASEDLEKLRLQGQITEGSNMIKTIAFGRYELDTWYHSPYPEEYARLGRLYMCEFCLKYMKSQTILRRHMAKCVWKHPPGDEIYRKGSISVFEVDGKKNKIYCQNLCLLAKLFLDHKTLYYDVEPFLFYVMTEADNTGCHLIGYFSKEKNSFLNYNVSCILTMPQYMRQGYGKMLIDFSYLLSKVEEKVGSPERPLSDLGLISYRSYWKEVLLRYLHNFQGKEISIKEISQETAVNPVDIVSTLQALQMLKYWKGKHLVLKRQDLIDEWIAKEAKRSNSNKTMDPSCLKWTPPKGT
Histone deacetylase 1 (Homo sapiens), sequence (Q13547 whole entry): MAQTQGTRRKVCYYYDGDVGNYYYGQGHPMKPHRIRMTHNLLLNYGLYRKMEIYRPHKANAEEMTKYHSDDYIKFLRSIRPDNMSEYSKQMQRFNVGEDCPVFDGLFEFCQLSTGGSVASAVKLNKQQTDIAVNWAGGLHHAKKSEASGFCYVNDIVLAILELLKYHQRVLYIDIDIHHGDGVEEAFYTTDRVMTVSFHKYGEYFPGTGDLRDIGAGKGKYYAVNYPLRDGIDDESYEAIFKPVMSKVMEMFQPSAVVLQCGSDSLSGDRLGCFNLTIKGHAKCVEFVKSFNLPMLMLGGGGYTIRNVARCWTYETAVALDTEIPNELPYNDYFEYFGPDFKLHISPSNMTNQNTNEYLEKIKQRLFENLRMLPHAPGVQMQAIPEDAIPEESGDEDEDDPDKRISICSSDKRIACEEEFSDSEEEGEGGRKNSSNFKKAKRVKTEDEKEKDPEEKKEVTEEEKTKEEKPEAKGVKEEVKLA

Structure (SMILES): Oc1cc(O)c2c(c1)O[C@H](c1ccc(O)c(O)c1)[C@@H](O)[C@@H]2c1c(O)cc(O)c2c1O[C@H](c1ccc(O)c(O)c1)[C@@H](O)C2
- inhibition (Homo sapiens [1]): < 40%
- inhibition (Homo sapiens [2]): 90%
- inhibition [3]: 60%

Structure (SMILES): CCOC(=O)c1c(C)nc2ccccc2c1O
- Activity (U-937): 27%

Structure (SMILES): COc1cc2c(cc1OC)-c1cc3ccc(OC)c(OC)c3c[n+]1CCC2
- IC50 [4]: 0.42 µM

Structure (SMILES): CCCCCCCCCCCCCCCC(=O)Nc1ccccc1C(=O)Nc1ccc(C(=O)O)cc1
- IC50 (HCT cell line): 25 to 50 µM
- IC50 (A549 [9]): 25 to 50 µM
- IC50 (HT-29): 25 to 50 µM
- IC50 (Hep 3B2): 25 to 50 µM
- IC50 (MDA-MB-231): 25 to 50 µM
- IC50 (HeLa): 25 to 50 µM

Structure (SMILES): CCCCCCCCCCCCCC(=O)Nc1ccccc1C(=O)Nc1cccc(C(=O)O)c1
- inhibition [11]: 79%
- inhibition [12]: 79%
- IC50 (HCT cell line): 25 to 50 µM
- IC50 (A549 [9]): 25 to 50 µM
- IC50 (HT-29): 25 to 50 µM
- IC50 (Hep 3B2): 25 to 50 µM
- IC50 (MDA-MB-231): 25 to 50 µM
- IC50 (HeLa): 25 to 50 µM

Structure (SMILES): O=C(NNS(=O)(=O)c1ccc2ccccc2c1)c1ccccc1F
- IC50 [13]: > 200 µM
- IC50 [14]: > 200 µM
- inhibition [15]: 49%
- inhibition [16]: 49%

Structure (SMILES): COc1cc(OC)cc(C(=O)Nc2ccc3c(C)c(C(=O)c4cc(OC)ccc4OC)oc3c2)c1
- IC50 (A549 [17]): 58.3 µg/mL (≈ 123 µM)

Structure (SMILES): CC1=CC(=O)c2c(O)cccc2C1=O [PLUMBAGIN]
- IC50 [18]: > 50 µM
- IC50 [19]: > 50 µM

Structure (SMILES): CCCCCCCCCCCCCC(=O)Nc1ccccc1C(=O)Nc1ccc(C(=O)O)cc1
- IC50 (HCT cell line): 25 to 50 µM
- IC50 (A549 [9]): 25 to 50 µM
- IC50 (HT-29): 25 to 50 µM
- IC50 (Hep 3B2): 25 to 50 µM
- IC50 (MDA-MB-231): 25 to 50 µM
- IC50 (HeLa): 25 to 50 µM

Structure (SMILES): COc1cc2c(cc1OC)C[N+]1(Cc3ccccc3)CCCc3cc(OC)c(OC)cc3C1C2 (stereo not drawn)
- IC50 [4]: < 10 µM

Structure (SMILES): Oc1cc(O)c2c(c1)O[C@H](c1ccc(O)c(O)c1)[C@H](O)[C@H]2c1c(O)cc(O)c2c1O[C@H](c1ccc(O)c(O)c1)[C@@H](O)C2
- inhibition (Homo sapiens [2]): 50%

Structure (SMILES): Oc1cc(O)c2cc(O)c(-c3cc(O)c(O)c(O)c3)[o+]c2c1.[Cl-] [DELPHINIDIN CHLORIDE]
- IC50 [25]: 30 µM

Continued, values first:

- inhibition [5]: 50%
- inhibition [6]: 50%
- inhibition [7]: 50%
- inhibition [8]: 50%
Structure (SMILES): COc1ccc(C2CC(c3cccs3)=NN2c2nc(-c3ccc(N4C(=O)c5ccccc5C4=O)cc3)cs2)cc1OC (stereo not drawn)

- IC50 [10]: > 2 µM
Structure (SMILES): CCCCC[C@H](O)CC[C@H]1C(=O)C=C[C@@H]1C/C=C/CCCC(=O)O

- inhibition (CREB-binding protein): 85%
Structure (SMILES): CCOC(=O)C1C/C(=C\c2ccc(O)c(Br)c2)C(=O)/C(=C/c2ccc(O)c(Br)c2)C1 (stereo not drawn)

- inhibition (CREB-binding protein): 40%
Structure (SMILES): Cc1cc(/C=C2\CCC/C(=C\c3cc(C)c(O)c(C)c3)C2=O)cc(C)c1O

- IC50 [20]: 0.011 µM
- IC50 [21]: 0.011 µM
Structure (SMILES): N=C(N)NCCC[C@@H]1NC(=O)/C(=C\c2ccc(O)c(OCC[C@H](NC(=O)C[C@](O)(CC(=O)N[C@@H](CC(=O)O)C(=O)O)C(=O)O)C(=O)O)c2)NC1=O (stereo in doubt)

- IC50 [10]: 5 to 7 µM
- inhibition [22]: < 10%
- inhibition [23]: < 10%
- inhibition [24]: < 10%
Structure (SMILES): CC(C)=CC[C@H]1C[C@@]23C[C@@H](CC=C(C)C)C(C)(C)[C@@](CC=C(C)C)(C(=O)C(C(=O)c4ccc(OS(C)(=O)=O)c(OS(C)(=O)=O)c4)=C2OC1(C)C)C3=O

- IC50 [21]: 0.022 µM
Structure (SMILES): N=C(N)NCCC[C@@H]1NC(=O)/C(=C\c2ccc(O)c(OCC[C@H](NC(=O)C[C@](O)(CC(=O)O)C(=O)O)C(=O)O)c2)NC1=O (stereo in doubt)

- IC50 [4]: < 10 µM
Structure (SMILES): COc1cc2c(cc1OC)C1Cc3ccc(OC)c(OC)c3C[N+]1(Cc1ccccc1)CCC2 (stereo not drawn)

- IC50 [4]: < 10 µM
Structure (SMILES): COc1cc2c(cc1OC)-c1cc3ccc(OC)c(OCc4ccc([N+](=O)[O-])cc4)c3c[n+]1CCC2

- inhibition (CREB-binding protein): 40%
Structure (SMILES): O=C1/C(=C/c2ccc(O)cc2)CCC/C1=C\c1ccc(O)cc1

- IC50 [26]: 0.225 µM
Structure (SMILES): C#CCN(Cc1ccc2[nH]c(N)nc(=O)c2c1)c1ccc(C(=O)N[C@@H](CCC(=O)O)C(=O)O)cc1
